For orientation: IC50 means the concentration that inhibits the measured activity by half.

Common to all, as to type: biochemical
One assay deals with AXL (Homo sapiens (Human), UniProt P30530). In words: Enzyme selectivity test (ELISA), AXL. How it is done: (§1) 1) Enzyme reaction substrate Poly(Glu, Tyr) 4:1 was diluted to 20 μg/mL with potassium-free PBS (10 mM sodium phosphate buffer, 150 mM NaCl, pH 7.2-7.4), and the microtiter plate was coated with 125 μL/well and placed at 37° C. for 12-16 hours of reaction. The liquid in the well was discard. The plate was washed three times with T-PBS (potassium-free PBS containing 0.1% Tween-20, 200 μL/well), 5 minutes each time. The ELISA plate was dried in an oven at 37° C. for 1 to 2 hours.
(§2) 2) Reaction buffer (50 mM HEPES pH 7.4, 50 mM MgCl2, 0.5 mM MnCl2, 0.2 mM Na3VO4, 1 mM DTT) diluted ATP solution (49 μL) was added to each well, 1 μL of the compound to be tested was added to each well, and then 50 μL of DDR2 kinase domain recombinant protein diluted in the reaction buffer was added to start the reaction. Two control wells without ATP were set in each experiment. The plate placed on a shaker (100 rpm) at 37° C. for 1 hour of reaction. The liquid in the well was discarded and the plate was washed three times with T-PBS.
(§3) 3) Antibody PY99 dilution solution (the antibody was diluted 1:500 with T-PBS containing BSA 5 mg/mL) was added at 100 μL/well, and shaken on a shaker at 37° C. for 0.5 hour of reaction. The liquid in the well was discarded and the plate was washed three times with T-PBS.
(§4) 4) Horseradish peroxidase labeled goat anti-murine secondary antibody dilution solution (the antibody is diluted 1:2000 with T-PBS containing BSA 5 mg/ml) was added at 100 μL/well, and shaken on a shaker at 37° C. for 0.5 hour of reaction. The liquid in the well was discarded and the plate was washed three times with T-PBS.
(§5) 5) 2 mg/ml of OPD color developing solution [diluted with 0.1 M citric acid-sodium citrate buffer (pH=5.4) containing 0.03% H2O2] was added at 100 μL/well and reacted for 1 to 10 minutes at 25° C. in the dark.
(§6) 6) 2M H2SO4 was added at 50 μL/well to stop the reaction, and a tunable wavelength microplate reader VERSAmax was used for reading at a wavelength of 490 nm.
(§7) The IC50 value was obtained by four-parameter regression using the software that came with the microplate reader. […]
On the technique in general: In an ELISA, binding on a coated surface is turned into a signal by an enzyme label.

The target of another assay is ErbB4 (Homo sapiens (Human), UniProt Q15303). The assay is described as follows: Enzyme selectivity test (ELISA), ErbB4. How it is done:
as §1, §2, §3, §4, §5, §6, §7

For a further assay, the system named is kinases. The assay is described as follows: Enzyme selectivity test, kinase panel overall. To be noted: kinase panel of Table 5. An excerpt: Except that the enzyme was different, other test methods and conditions were the same as the DDR2 enzyme activity test method in Effect example 1.
A further assay concerns the target DDR2 (Homo sapiens (Human), UniProt Q16832). In words: DDR2 enzyme activity test (ELISA). The note with it: read-out: DDR2 IC50. How it is done:
The optical rotation and the inhibitory activity against DDR2 enzyme of the compounds S11-A and S11-B obtained by the resolution in Example 12, and the chirally synthesized compounds S11-A′ and S11-B′ in Example 13 were tested (referred to the operation in Effect example 1), and the results are shown in Table 3 below:
Detection method: Enzyme-linked immunosorbent assay (ELISA)
Test receptor tyrosine kinase: DDR2
The kinase used in the experiment was obtained by our laboratory using the insect baculovirus expression system to express and purify the recombinant protein containing the protein kinase region; polyglutamic acid-tyrosine peptide segment [Poly(Glu, Tyr) 4:1] and sodium vanadate were purchased from Sigma; the anti-phosphorylated monoclonal antibody PY99 was purchased from Santa Cruz; horseradish peroxidase labeled goat anti-murine secondary antibody was purchased from Calbiochem; ATP and OPD were purchased from Sangon Biotech (Shanghai) Co., Ltd.; the remaining reagents were purchased from Sinopharm Chemical Reagent Co., Ltd. The reaction ELISA plate (#2592) was purchased from Corning. The full-wavelength microplate reader for experiment reading was a product of Molecular Device, model: SpectraMax 190; the experimental water was distilled water produced by Sinopharm Group.
The compound was centrifuged at 12,000 g for 5 min, and DMSO was added to prepare a 10^-2M stock solution, which was vortexed evenly, then sonicated for 10 min and stored at −40° C. for later use. During the test, the compound was diluted with DMSO from the stock solution to 100 times the test concentration (the DMSO concentration in the system was 1%).
as §1, §2, §3, §4, §5, §6
The IC50 value was obtained by four-parameter regression using the software that came with the microplate reader.

The target of another assay is FGFR-4 (Homo sapiens (Human), UniProt P22455). In words: Enzyme selectivity test (ELISA), FGFR-4. The protocol:
as §1
(§8) 2) Reaction buffer (50 mM HEPES pH 7.4, 50 mM MgCl2, 0.5 mM MnCl2, 0.2 mM Na3VO4, 1 mM DTT) diluted ATP solution (49 μL) was added to each well, 1 μL of the compound to be tested was added to each well, and then 50 μL of DDR2 kinase domain recombinant protein diluted in the reaction buffer was added to start the reaction. Two control wells without ATP were set in each experiment. The plate placed on a shaker (100 rpm) at 37° C. for 1 hour of reaction. The liquid in the well was discarded and the plate was washed three times with T-PBS. […]
as §6, §7

The target in the next assay is RET (Homo sapiens (Human), UniProt P07949). In words: Enzyme selectivity test (ELISA), RET. The protocol: as §1, §2, §3, §4, §5, §6, §7
Chain of RET (P07949 29-1114, species assumed): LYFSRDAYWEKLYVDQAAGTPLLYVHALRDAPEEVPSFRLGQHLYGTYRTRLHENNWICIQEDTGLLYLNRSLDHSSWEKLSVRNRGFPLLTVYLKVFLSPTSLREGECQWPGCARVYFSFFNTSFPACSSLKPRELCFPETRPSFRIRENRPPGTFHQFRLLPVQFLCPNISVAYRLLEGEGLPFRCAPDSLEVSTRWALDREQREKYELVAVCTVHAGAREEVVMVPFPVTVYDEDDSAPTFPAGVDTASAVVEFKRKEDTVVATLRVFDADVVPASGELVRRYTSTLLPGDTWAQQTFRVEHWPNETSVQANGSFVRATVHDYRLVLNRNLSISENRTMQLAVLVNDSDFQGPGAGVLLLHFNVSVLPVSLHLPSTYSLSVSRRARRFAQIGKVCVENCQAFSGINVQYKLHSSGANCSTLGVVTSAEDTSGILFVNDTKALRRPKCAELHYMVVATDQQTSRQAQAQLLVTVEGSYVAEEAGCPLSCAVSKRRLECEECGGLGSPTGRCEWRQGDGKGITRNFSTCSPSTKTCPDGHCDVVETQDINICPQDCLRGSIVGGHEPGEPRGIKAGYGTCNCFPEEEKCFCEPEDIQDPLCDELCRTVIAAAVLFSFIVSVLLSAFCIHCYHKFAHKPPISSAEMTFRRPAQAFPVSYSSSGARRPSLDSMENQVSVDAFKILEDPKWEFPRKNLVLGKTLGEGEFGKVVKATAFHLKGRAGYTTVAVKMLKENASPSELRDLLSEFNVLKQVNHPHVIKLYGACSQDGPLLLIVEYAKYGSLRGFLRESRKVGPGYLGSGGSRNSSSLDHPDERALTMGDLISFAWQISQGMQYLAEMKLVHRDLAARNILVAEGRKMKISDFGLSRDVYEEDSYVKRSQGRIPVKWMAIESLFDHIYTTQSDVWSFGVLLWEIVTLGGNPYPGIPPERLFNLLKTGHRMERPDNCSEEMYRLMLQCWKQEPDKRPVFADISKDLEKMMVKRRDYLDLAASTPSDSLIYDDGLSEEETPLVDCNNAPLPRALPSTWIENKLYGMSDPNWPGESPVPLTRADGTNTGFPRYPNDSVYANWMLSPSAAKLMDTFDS
Another assay addresses IGF-1R (Homo sapiens (Human), UniProt P08069). In words: Enzyme selectivity test (ELISA), IGF-1R. How it is done: as §1, §2, §3, §4, §5, §6, §7
For a further assay, the target named is ALK (Homo sapiens (Human), UniProt Q9UM73). In words: Enzyme selectivity test (ELISA), ALK. How it is done: as §1, §2, §3, §4, §5, §6, §7
The target in a further assay is Abl (Homo sapiens (Human), UniProt P00519). In words: Enzyme selectivity test (ELISA), Abl. The protocol:
as §1, §2, §3, §4, §5, §6, §7

Another assay deals with FGFR-1 (Homo sapiens (Human), UniProt P11362). In words: Enzyme selectivity test (ELISA), FGFR-1. How it is done:
as §1, §2, §3, §4, §5, §6, §7

For another assay, the target named is EGFR (Homo sapiens (Human), UniProt P00533). The assay is described as follows: Enzyme selectivity test (ELISA), EGFR. How it is done:
as §1, §2, §3, §4, §5, §6, §7

A further assay has as its target VEGFR-1 (Homo sapiens (Human), UniProt P17948). The assay is described as follows: Enzyme selectivity test (ELISA), VEGFR-1. The protocol: as §1, §2, §3, §4, §5, §6, §7
A further assay addresses PDGFR-β (Homo sapiens (Human), UniProt P09619). In words: Enzyme selectivity test (ELISA), PDGFR-β. How it is done:
as §1, §2, §3, §4, §5, §6, §7

In another assay the target is ErbB2 (Homo sapiens (Human), UniProt P04626). In words: Enzyme selectivity test (ELISA), ErbB2. The protocol:
as §1, §2, §3, §4, §5, §6, §7

A further assay concerns the target PDGFR-α (Homo sapiens (Human), UniProt P16234). In words: Enzyme selectivity test (ELISA), PDGFR-α. The protocol:
as §1, §2, §3, §4, §5, §6, §7

A further assay deals with EPH-A2 (Homo sapiens (Human), UniProt P29317). The assay is described as follows: Enzyme selectivity test (ELISA), EPH-A2. How it is done:
as §1, §2, §3, §4, §5, §6, §7

The next assay addresses Src (Homo sapiens (Human), UniProt P12931). In words: Enzyme selectivity test (ELISA), Src. How it is done:
as §1, §2, §3, §4, §5, §6, §7

The next assay addresses Met (Homo sapiens (Human), UniProt P08581). In words: Enzyme selectivity test (ELISA), Met. How it is done:
as §1, §2, §3, §4, §5, §6, §7

In the next assay the target is C-Kit (Homo sapiens (Human), UniProt P10721). In words: Enzyme selectivity test (ELISA), C-Kit. The protocol:
as §1, §2, §3, §4, §5, §6, §7

The target in the next assay is FGFR-2 (Homo sapiens (Human), UniProt P21802). The assay is described as follows: Enzyme selectivity test (ELISA), FGFR-2. The protocol: as §1, §8, §6, §7
For another assay, the target named is KDR (Homo sapiens (Human), UniProt P35968). In words: Enzyme selectivity test (ELISA), KDR. The protocol:
as §1, §2, §3, §4, §5, §6, §7

A further assay concerns the target Flt-3 (Homo sapiens (Human), UniProt P36888). The assay is described as follows: Enzyme selectivity test (ELISA), Flt-3. How it is done:
as §1, §2, §3, §4, §5, §6, §7

A further assay concerns the target FGFR-3 (Homo sapiens (Human), UniProt P22607). The assay is described as follows: Enzyme selectivity test (ELISA), FGFR-3. How it is done:
as §1, §8, §6, §7

A further assay has as its target P38 MAPK. In words: Enzyme selectivity test (ELISA), P38 MAPK. The protocol:
as §1, §8, §6, §7

Chain of P38 MAPK (Q16539 2-360 limits assumed): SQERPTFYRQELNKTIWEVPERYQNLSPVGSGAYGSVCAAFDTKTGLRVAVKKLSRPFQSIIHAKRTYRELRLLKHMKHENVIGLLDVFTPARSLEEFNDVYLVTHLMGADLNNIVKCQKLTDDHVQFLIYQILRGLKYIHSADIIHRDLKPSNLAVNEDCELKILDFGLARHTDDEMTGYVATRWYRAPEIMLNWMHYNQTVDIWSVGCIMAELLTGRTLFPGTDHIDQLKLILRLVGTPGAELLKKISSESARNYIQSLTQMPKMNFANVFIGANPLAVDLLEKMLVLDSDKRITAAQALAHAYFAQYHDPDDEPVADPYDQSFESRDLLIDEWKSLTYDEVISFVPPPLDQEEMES
Chain of PDGFR-α (P16234 24-1089, species assumed): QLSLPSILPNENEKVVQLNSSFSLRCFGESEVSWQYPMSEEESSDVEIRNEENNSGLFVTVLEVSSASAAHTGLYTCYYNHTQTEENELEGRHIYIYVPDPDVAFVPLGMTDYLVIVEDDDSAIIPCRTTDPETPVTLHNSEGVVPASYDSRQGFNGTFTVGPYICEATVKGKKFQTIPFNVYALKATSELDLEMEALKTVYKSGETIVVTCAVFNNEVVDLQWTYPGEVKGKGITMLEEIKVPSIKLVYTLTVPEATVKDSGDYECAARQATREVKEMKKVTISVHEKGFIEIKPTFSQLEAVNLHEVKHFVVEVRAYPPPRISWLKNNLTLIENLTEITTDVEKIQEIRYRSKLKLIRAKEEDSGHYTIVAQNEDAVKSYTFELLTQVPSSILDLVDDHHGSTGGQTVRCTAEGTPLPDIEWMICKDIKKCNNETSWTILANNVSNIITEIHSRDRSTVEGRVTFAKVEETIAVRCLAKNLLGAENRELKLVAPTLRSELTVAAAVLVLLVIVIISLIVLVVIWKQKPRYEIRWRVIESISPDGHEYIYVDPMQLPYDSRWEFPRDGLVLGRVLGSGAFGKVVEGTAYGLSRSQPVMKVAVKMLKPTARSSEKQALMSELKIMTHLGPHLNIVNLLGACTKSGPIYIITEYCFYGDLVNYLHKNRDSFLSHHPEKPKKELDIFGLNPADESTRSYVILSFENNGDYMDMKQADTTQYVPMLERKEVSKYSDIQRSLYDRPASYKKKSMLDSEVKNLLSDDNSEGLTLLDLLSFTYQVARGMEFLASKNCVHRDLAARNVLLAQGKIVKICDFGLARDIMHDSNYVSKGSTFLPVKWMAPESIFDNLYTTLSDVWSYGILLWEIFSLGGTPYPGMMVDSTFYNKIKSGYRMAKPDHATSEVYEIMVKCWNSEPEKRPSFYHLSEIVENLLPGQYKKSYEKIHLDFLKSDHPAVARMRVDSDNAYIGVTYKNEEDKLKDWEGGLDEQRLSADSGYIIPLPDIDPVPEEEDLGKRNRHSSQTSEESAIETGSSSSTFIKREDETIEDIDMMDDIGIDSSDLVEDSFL
Chain of DDR2 (Q16832 563-849): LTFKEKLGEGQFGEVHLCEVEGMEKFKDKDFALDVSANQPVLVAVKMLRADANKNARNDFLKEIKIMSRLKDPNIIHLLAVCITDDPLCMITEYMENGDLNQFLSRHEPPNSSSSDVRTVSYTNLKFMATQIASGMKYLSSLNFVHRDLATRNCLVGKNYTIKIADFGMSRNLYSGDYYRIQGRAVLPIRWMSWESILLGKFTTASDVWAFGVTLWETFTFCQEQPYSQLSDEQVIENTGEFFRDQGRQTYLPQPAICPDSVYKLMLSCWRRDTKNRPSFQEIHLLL
Chain of EPH-A2 (P29317 24-976, species assumed): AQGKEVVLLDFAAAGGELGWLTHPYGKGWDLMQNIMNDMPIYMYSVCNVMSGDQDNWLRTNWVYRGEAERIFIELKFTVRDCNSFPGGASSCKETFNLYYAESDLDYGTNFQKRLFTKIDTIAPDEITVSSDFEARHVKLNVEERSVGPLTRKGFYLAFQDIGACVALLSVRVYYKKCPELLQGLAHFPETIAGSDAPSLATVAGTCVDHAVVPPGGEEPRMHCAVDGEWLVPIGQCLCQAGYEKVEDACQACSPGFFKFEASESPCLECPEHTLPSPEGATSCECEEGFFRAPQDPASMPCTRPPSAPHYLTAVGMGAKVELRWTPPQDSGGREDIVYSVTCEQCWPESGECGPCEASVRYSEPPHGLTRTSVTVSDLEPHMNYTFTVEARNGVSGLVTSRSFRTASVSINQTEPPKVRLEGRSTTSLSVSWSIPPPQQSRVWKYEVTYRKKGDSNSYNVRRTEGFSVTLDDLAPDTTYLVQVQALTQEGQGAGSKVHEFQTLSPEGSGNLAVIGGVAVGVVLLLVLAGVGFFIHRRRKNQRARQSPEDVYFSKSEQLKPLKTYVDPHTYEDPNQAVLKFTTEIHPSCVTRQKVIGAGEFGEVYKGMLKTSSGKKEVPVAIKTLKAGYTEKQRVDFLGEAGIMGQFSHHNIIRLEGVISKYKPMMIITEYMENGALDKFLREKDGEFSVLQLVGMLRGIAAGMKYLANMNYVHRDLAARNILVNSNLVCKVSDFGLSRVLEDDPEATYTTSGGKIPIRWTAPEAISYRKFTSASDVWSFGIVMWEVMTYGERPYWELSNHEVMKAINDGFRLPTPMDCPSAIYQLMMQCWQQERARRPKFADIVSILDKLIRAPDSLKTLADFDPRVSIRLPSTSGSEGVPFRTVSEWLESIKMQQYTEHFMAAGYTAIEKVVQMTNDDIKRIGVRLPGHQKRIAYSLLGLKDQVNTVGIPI
Chain of KDR (P35968 20-1356, species assumed): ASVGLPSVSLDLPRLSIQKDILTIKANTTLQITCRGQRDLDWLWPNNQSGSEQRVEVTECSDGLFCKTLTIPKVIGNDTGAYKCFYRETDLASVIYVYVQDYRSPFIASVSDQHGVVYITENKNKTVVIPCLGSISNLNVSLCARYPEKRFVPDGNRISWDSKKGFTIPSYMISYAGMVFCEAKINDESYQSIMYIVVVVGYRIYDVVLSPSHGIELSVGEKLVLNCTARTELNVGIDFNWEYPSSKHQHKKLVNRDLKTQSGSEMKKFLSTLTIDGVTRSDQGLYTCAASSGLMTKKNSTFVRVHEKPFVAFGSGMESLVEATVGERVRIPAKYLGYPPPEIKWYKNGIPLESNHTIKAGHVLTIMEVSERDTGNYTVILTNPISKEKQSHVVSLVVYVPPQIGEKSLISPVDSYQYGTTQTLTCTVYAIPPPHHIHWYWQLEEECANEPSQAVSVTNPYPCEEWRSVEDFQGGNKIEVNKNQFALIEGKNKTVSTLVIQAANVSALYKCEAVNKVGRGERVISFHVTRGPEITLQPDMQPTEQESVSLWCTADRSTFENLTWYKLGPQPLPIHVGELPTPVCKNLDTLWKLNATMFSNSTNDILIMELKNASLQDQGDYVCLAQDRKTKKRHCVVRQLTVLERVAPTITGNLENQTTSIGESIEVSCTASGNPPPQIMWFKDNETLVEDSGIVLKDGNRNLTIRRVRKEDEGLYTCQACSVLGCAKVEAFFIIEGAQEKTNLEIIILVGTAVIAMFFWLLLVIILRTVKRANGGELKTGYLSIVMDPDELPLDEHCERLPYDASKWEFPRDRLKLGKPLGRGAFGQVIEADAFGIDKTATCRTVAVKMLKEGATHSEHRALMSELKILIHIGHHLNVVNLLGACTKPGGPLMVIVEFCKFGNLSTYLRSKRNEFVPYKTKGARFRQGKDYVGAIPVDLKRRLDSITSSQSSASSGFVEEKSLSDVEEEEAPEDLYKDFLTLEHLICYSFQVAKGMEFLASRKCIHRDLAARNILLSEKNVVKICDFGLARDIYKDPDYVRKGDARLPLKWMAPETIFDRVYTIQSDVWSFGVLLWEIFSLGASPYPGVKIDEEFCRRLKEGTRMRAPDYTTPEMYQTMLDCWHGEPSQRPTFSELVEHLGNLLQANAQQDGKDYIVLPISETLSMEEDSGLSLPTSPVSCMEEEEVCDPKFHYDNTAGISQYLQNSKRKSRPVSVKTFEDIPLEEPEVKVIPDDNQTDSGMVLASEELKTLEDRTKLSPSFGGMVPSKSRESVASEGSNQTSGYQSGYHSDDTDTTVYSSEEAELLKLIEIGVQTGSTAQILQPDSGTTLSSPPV

`CCC(NC(=O)c1ccc(C2CC2)c(-c2ccc3nc(Nc4cnn(C5CC5)c4)ncc3c2)c1)c1cccc(C(F)(F)F)c1` (stereo not drawn) [Compound S18]: the IC50 is greater than 1000 nM against AXL; greater than 1000 nM against ErbB4; 3.7 ± 0.2 nM on DDR2; greater than 1000 nM against FGFR-4; greater than 1000 nM at RET; greater than 1000 nM on IGF-1R. The IC50 on ALK, at Abl, at FGFR-1, at EGFR, against VEGFR-1 and against PDGFR-β was greater than 1000 nM throughout. Besides, the IC50 on ErbB2, against PDGFR-α, on EPH-A2, at Src, against Met and on C-Kit was greater than 1000 nM throughout. Further, the concentration for half-maximal inhibition (IC50) on FGFR-2, against KDR, on Flt-3, against FGFR-3 and on P38 MAPK was greater than 1000 nM throughout. For the same compound, the selectivity for kinases result in the assay with kinases is given as “good selectivity”.
